Experimental data from article PMC5349447, “Applying a high-throughput fluorescence polarization assay for the discovery of chemical probes blocking La:RNA interactions in vitro and in cells” (PLoS ONE, 2017).
Entries after “also recorded” stand apart in the source; their conditions may differ.

Experiments:
MRC5 cells = test: Cell toxicity, CyQUANT cell number, MRC5; type: cell-based, human; conditions: 48 h, up to 150 μM
Method: (§1) Normal fibroblast MRC5 and human embryonic kidney HEK293 cells were purchased from ATCC. Head and neck squamous cell carcinoma cell lines UM-SCC 22A (SCC 22A) and UM-SCC 22B (SCC 22B) were described elsewhere. MRC5 cells were cultured in EMEM plus 10% FBS; SCC 22A, SCC 22B, and HEK293 cells were cultured in advanced DMEM (Gibco) containing 2 mM L-glutamine (Life Technology) and 10% FBS. All cell lines were tested for mycoplasma contamination by applying a MycoSensor PCR Assay kit according to the manufacturer’s instructions (Agilent Technologies).
(§2) To test for cell toxicity the compounds were dissolved in 100% DMSO to a concentration of 100 mM. Subsequently, compounds were diluted in media to 10 mM (10% DMSO), 1 mM (1% DMSO) and tested at 150, 125, 100, 75, 50, 25 μM in SCC 22B and MRC5 cells. To reach this concentration compounds (stock 1 mM, 1% DMSO) were diluted in the cell culture dish (96-well format, 100 μl final volume) as follows: 150 μM = 6.7 fold (final DMSO: 0.15%); 125 μM = 8.0 fold (final DMSO: 0.125%); 100 μM = 10 fold (final DMSO: 0.1%); 75 μM = 13.3 fold (final DMSO: 0.075%); 50 μM = 20 fold (final DMSO: 0.05%); and 25 μM = 40 fold (final DMSO: 0.025%). As a control the highest DMSO concentration of 0.15% was used. Cells were cultured in appropriate media (see above) for 48h. Subsequently, cells were washed twice with 1x PBS and quantified after staining with fluorescence dye (CyQUANT®, Life Technologies). For this experiments 3x10^4 of MRC5 and 1x10^4 SCC 22B cells were plate the day before the experiment.

La-WT:fD1-RNA complex = system: T1, La-WT:fD1-RNA complex; test: EMSA, compound competition, La-WT:fD1; type: binding, human; conditions: La-WT 60 nM, fD1 50 nM
T1 construct: His; made in house; host or cells: E. coli BL21
Method: (§3) 12% native TBE polyacrylamide gels were prepared in a Mini-PROTEAN Tetra Handcast System (BioRad). The gel was pre-run for 30 min at 140 V in 1x TBE buffer (45 mM Tris/HCl pH 8.5, 45 mM boric acid, 1 mM EDTA). To prepare the RNA-mix, fluorescence labeled RNA oligoribonucleotides (oligos) were diluted in fluorescence polarization buffer (20 mM Tris/HCl (pH 7.4), 150 mM NaCl, 3.0 mM MgCl2, 0.5 mM EDTA, 0.05% (v/v) IGEPAL), mixed for 10 min at 80°C, and then immediately placed on ice for at least 5 min. All RNA oligos were used at a final concentration of 50 nM. Recombinant La protein was diluted in D-buffer (20 mM Tris/ HCl (pH 7.4), 150mM NaCl, 3mM MgCl2, 0.5mM EDTA, 5% glycerol) and placed on ice until use.
La titration was performed at final concentrations of 20, 40, 60, 100, 200, 300, 400, 500, 600 nM La. Three different La concentrations were used for compound studies: 60 nM for fD1 RNA, 200 nM for fPolyU RNA, and 150 nM for TOPf RNA studies. Two μl of diluted compound (diluted in 100% DMSO) or 2 μl 100% DMSO (control reaction) was combined with 8 μl La-mix in a 96-well plate. 10 μl RNA-mix was added, mixed for 2 min, and incubated for 10 min at RT in the dark. Final concentrations in the reaction: 18 mM Tris/HCl (pH 7.4), 135 mM NaCl, 2.7 mM MgCl2, 0.45 mM EDTA, 0.025% (v/v) IGEPAL, 2% glycerol, 10% DMSO). Samples were loaded onto the pre-run gel without any loading buffer. Gels were run at 160 V for 40 min in the dark. The gels were carefully transferred to a clear plastic wrap and scanned using a Typhoon FLA900 imager. The La-RNA complex (La-RNP) formation was quantified using the ImageQuant TL software.
Next we used our established EMSA to test whether compound C2 and C6 can compete against the three RNA oligos: fD1, fPolyU, and TOPf. All of the EMSA reactions were loaded in the following order: lane 1 contains the RNA oligo alone; lane 2 contains the RNA oligo plus La protein at concentration that shifts 50% of the RNA oligo (positive control); lanes 3–9 contain the RNA oligo, La protein and decreasing concentrations of the compound; and lane 10 contains the RNA oligo and the highest compound concentration (negative control).

SCC 22B cells = test: Cell toxicity, CyQUANT cell number, SCC 22B; type: cell-based, human; conditions: for effect on SCC 22B cell numbers: 12.5-150 μM
Method: as §1, §2

La-RRM1+2:fD1 complex = test: EMSA, compound competition, La-RRM1+2:fD1; type: binding, human; conditions: La-RRM1+2 60 nM, fD1 50 nM
Method: as §3
(§4) La titration was performed at final concentrations of 20, 40, 60, 100, 200, 300, 400, 500, 600 nM La. Three different La concentrations were used for compound studies: 60 nM for fD1 RNA, 200 nM for fPolyU RNA, and 150 nM for TOPf RNA studies. Two μl of diluted compound (diluted in 100% DMSO) or 2 μl 100% DMSO (control reaction) was combined with 8 μl La-mix in a 96-well plate. 10 μl RNA-mix was added, mixed for 2 min, and incubated for 10 min at RT in the dark. […] The La-RNA complex (La-RNP) formation was quantified using the ImageQuant TL software. […]

La:TOPf complex = system: T2, La:TOPf complex; test: EMSA, compound competition, La-WT:TOPf; type: binding, human; conditions: TOPf 50 nM
T2 construct: His; made in house; host or cells: E. coli BL21
Method: as §3, §4

La:fPolyU complex = system: T3, La:fPolyU complex; test: EMSA, compound competition, La-WT:fPolyU; type: binding, human
T3 construct: His; made in house; host or cells: E. coli BL21
Method: as §3, §4

| Structure (SMILES) | toxic effect on MRC5 cells (normal fibroblasts) (MRC5 cells) | competition for La:fD1 interaction (EMSA), in words (La-WT:fD1-RNA complex) | tolerance by SCC 22B cells (SCC 22B cells; 50 μM, 48 hours) | cytotoxic concentration in SCC 22B cells (SCC 22B cells; 48 h) | selectivity: cancer cell numbers compared to effect on normal MRC5 cells (SCC 22B cells; SCC 22B versus MRC5, 48 h) | concentration blocking La-RRM1+2:fD1 complex formation (EMSA) (La-RRM1+2:fD1 complex) | concentration inhibiting La:fD1 complex formation (EMSA) (La-WT:fD1-RNA complex) | concentration blocking La-WT:TOPf complex formation (EMSA) (La:TOPf complex; La-WT 150 nM) | competition for La:fPolyU complex formation (EMSA), in words (La:fPolyU complex; compared with La:fD1 and La:TOPf) | effect on SCC 22B cell numbers (SCC 22B cells; 48 h) | concentration impairing La:fD1 complex formation (EMSA) (La-WT:fD1-RNA complex; highest concentration tested) | impairment of La:TOPf complex formation (EMSA), in words (La:TOPf complex; La-WT 200 nM) | concentration impairing La:PolyU complex formation (EMSA) (La:fPolyU complex; La-WT 200 nM, fPolyU 50 nM, highest concentration tested) |
| --- | --- | --- | --- | --- | --- | --- | --- | --- | --- | --- | --- | --- | --- |
| Cc1ccc(C(=O)c2ccccc2C(=O)O)c(O)c1 [C2.01, 2-(2-hydroxy-4-methylbenzoyl)benzoic acid] | no toxic effect | lower concentration; also recorded: weak competitor | well tolerated | higher than 50 μM | preferentially reduced cancer cell numbers |  |  |  |  |  |  |  |  |
| CCOC(=O)c1ccc2c(c1)C1C=CCC1C(C(=O)O)N2 (centres unmarked) [C6, 8-(ethoxycarbonyl)-3a,4,5,9b-tetrahydro-3Hcyclopenta[c]quinoline-4-carboxylic acid] | toxic effect |  |  |  |  | 10 µM | 10 µM | 10 µM | weaker competitor | reduced SCC 22B cell numbers even at low concentrations |  |  |  |
| O=C(O)c1ccccc1C(=O)c1ccc(O)cc1O [C2, 2-(2,4-dihydroxybenzoyl)benzoic acid] | no toxic effect |  |  |  |  | 5000 µM |  |  |  | no effect | 10 mM | only at the highest concentration tested | 10 mM |
